What all share (assay type): biochemical, mice
One assay concerns mtPTP. Kind of assay: Calcium retention capacity (CRC) assay on isolated mitochondria. To be noted: for Calcium Retention Capacity (CRC/CRC0 at 12.5 μM): 12.5 μM compound; for Calcium Retention Capacity (CRC/CRC0) at 1.56 μM: 1.56 μM compound.
Assay [1] has as its system Mitochondrial Permeability Transition Pore. Kind of assay: Mitochondrial swelling absorbance assay.
Description: Mitochondrial Swelling (Hit Validation, Confirmatory Assay, Concentration-Response, AID No. 720722)
Assay buffer: 250 mM sucrose, 10 mM MOPS-Tris, 0.01 mM EGTA-Tris, 1.0 mM phosphoric acid-Tris, pH 7.4 • Solution 1. 5.0 mM glutamate and 2.5 mM malate in Assay buffer. • Solution 2. 80-120 μM CaCl2) depending on mitochondrial activity in Solution 1. Note: Concentration of Ca^2+ in the assay is dependent upon the activity of the isolated mitochondria which is determined via a calcium titration just before each screening batch. A Ca^2+ concentration is used that allows for the arrival at a 2:1 window at the 20 minute time period. • Solution 3. 1% DMSO in Solution 2. • Solution 4. 2.0 mM EGTA-Tris, pH 7.4 in Solution 3. • Solution 5. 0.5 mg/mL mitochondria in Assay Buffer.
Protocol Summary: • 1. Freshly isolate mitochondria, prepare solutions according to the recipes in the reagent section • 2. Dispense 100 μL of Solution 4 to Columns 1-2 and Solution 3 Columns 11-12 (positive and negative controls, respectively) of the 96-well clear assay plate (Falcon 353072) • 3. Dispense 200 μL of Solution 1 to Row A Columns 3-10. • 4. Next, dispense 100 μL of Solution 3 to Rows B-H Columns 3-10. • 5. Add 4 μL of 5 mM test compounds in DMSO to Row A Columns 3-10, perform 1:2 serial dilutions Row A to H Columns 3-10. • 6. Finally, dispense 100 μL of Solution 5 in all wells. The reaction starts. • 7. Keep the plate at room temperature for 20 minutes and then read absorbance at 540 nm on MultiSkan EX, Thermo Scientific.
Concentration-Response Assay to Identify Compounds that Inhibit Mitochondrial Swelling (SAR Assay AID No. 743359)
Assay buffer: 250 mM sucrose, 10 mM MOPS-Tris, 0.01 mM EGTA-Tris, 1.0 mM phosphoric acid, pH 7.4 • Solution 1. 5.0 mM glutamate and 2.5 mM malate in Assay Buffer. • Solution 2. 100-120 μM CaCl2) depending on mitochondrial activity in Solution 1. Note: Concentration of Ca^2+ in the assay is dependent upon the activity of the isolated mitochondria which is determined via a calcium titration just before each screening batch. A Ca^2+ concentration is used that allows for the arrival at a 2:1 window at the 20 minute time period. • Solution 3. 1% DMSO in Solution 2. • Solution 4. 2.0 mM EGTA-Tris, pH 7.4 in Solution 3. • Solution 5. 0.5 mg/mL mitochondria in Assay Buffer.
Protocol Summary: • 1. Freshly isolate mitochondria, prepare solutions according to the recipes in the Reagent Section. • 2. Dispense 100 μL of Solution 4 to Columns 1-2 and Solution 3 Columns 11-12 (positive and negative controls, respectively) of the 96-well clear assay plate (Falcon 353072). • 3. Dispense 200 μL of Solution 1 to Row A Columns 3-10. • 4. Next, dispense 100 μL of Solution 3 to Rows B-H Columns 3-10. • 5. Add 4 μL of 5 mM test compounds in DMSO to Row A Columns 3-10, perform 1:2 serial dilutions Row A to H Columns 3-10. • 6. Finally, dispense 100 μL of Solution 5 in all wells. The reaction starts. • 7. Keep the plate at room temperature for 20 minutes and then read absorbance at 540 nm on MultiSkan EX, Thermo Scientific.
A further assay relates to IMM potential. Kind of assay: Rhodamine 123 (Rh123) uptake counterscreen.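 Further: isolated mitochondria respiring on glutamate plus malate in sucrose MOPS-Tris buffer at pH 7.4, Rh123 added with the organelles, compounds tested across a twofold dilution series.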
Setting [2] is: Table 2, average of >3 experiments ± SEM.
Setting [3] is: Table 2, average of >3 experiments ± SEM, read-out: Rh123 Assay EC50.
The mark [4] stands for this setting: Table 1, read-out: Rh123 uptake (EC50).

Molecules are shown by their SMILES. Like-named read-outs stand apart in the source and are kept apart here.

The record followed here is patent publication US20240067600A1, “SMALL MOLECULE INHIBITORS OF THE MITOCHONDRIAL PERMEABILITY TRANSITION PORE (mtPTP)” (UNIVERSITY OF KANSAS, priority 2014, published 2024).

What is called EC50 is the concentration needed to bring the measured effect to its halfway point. For the compound `O=C(Nc1ccc(CN2CCCCC2)cc1)c1ccc(Cl)c(OCc2cccc(Cl)c2)c1` [Entry 8], the “Calcium Retention Capacity (CRC/CRC0 at 12.5 μM)” value in the assay on mtPTP (setting [2]) worked out at 6.50 ± 1.20. The 50% effective concentration (EC50) in assay [1] (setting [2]) was found to be 1.19 ± 0.33 µM; in the assay on IMM potential (setting [3]) it was 23.2 ± 1.3 µM.

With `COc1ccc(Cl)cc1C(=O)Nc1ccc(CCN2CCNCC2)cc1` [drawing 145], the “Calcium Retention Capacity (CRC/CRC0 at 12.5 μM)” value with mtPTP (Table 1, average ± SEM) is 1.37 ± 0.02. Besides, the EC50 is 5.85 ± 0.344 µM in assay [1] (Table 1, average ± SEM) and above 100 µM in the assay with IMM potential (setting [4]).

With `O=C(Nc1ccc(CN2CCCCC2)cc1)c1cccc(Cl)c1`, in the assay with mtPTP (Table 1, average ± SEM), the “Calcium Retention Capacity (CRC/CRC0 at 12.5 μM)” value came to 1.16 ± 0.02. Besides, the EC50 in assay [1] (Table 1, average ± SEM) is 16 ± 1.58 µM; in the assay on IMM potential (setting [4]) it was above 100 µM.

Consider `COc1ccc(-c2cc(C(=O)Nc3cc(Cl)cc(Cl)c3)no2)cc1O` [drawing 126], for which the “Calcium Retention Capacity (CRC/CRC0) at 1.56 μM” value in the assay on mtPTP (Table 1, average ± SEM) was 1.17 ± 0.11 (at 1.56 μM). The 50% effective concentration (EC50) in assay [1] (Table 1, average ± SEM) was 0.277 ± 0.001 µM; with IMM potential (setting [4]), above 100 µM.

As to `Cc1ccccc1NC(=O)c1cc(-c2cccc(O)c2)on1`, in the assay on mtPTP (Table 1, average ± SEM), the “Calcium Retention Capacity (CRC/CRC0 at 12.5 μM)” value was 8.16 ± 0.92. Moreover, the EC50 is 0.03 ± 0.0022 µM in assay [1] (Table 1, average ± SEM) and above 100 µM with IMM potential (setting [4]).

As to `COc1ccc(/C=C/C(=O)Nc2cccc(Cl)c2)cc1O` [Entry 13], the “Calcium Retention Capacity (CRC/CRC0 at 12.5 μM)” value with mtPTP (setting [2]) was 7.67 ± 0.35. Also, the EC50 in assay [1] (setting [2]) was 0.073 ± 0.007 µM; in the assay with IMM potential (setting [3]), above 100 µM.

On to `COc1ccc(Cl)cc1C(=O)Nc1ccc(CCN2CCOCC2)cc1`, for which the “Calcium Retention Capacity (CRC/CRC0 at 12.5 μM)” value in the assay with mtPTP (Table 1, average ± SEM) was found to be 1.23 ± 0.02. For the same compound, the EC50 is 9 ± 0.404 µM in assay [1] (Table 1, average ± SEM) and above 100 µM in the assay with IMM potential (setting [4]).

For `Cc1ccc(Cl)cc1NC(=O)c1cc(-c2ccc(F)c(O)c2)[nH]n1`, the “Calcium Retention Capacity (CRC/CRC0) at 1.56 μM” value with mtPTP (Table 1, average ± SEM) is on record as 10.92 ± 0.74 (at 1.56 μM). Besides, the EC50 in assay [1] (Table 1, average ± SEM) came out at 0.0014 ± 0.0002 µM; in the assay on IMM potential (setting [4]), 30.4 ± 5.5 µM.

Consider `Cc1c(Cl)cccc1NC(=O)c1cc(-c2ccc(Cl)c(O)c2)on1`, for which, in the assay with mtPTP (Table 1, average ± SEM), the “Calcium Retention Capacity (CRC/CRC0) at 1.56 μM” value is reported as 8.22 ± 0.58 (at 1.56 μM). Further, the EC50 in assay [1] (Table 1, average ± SEM) was 0.00018 ± 4.2e-05 µM; in the assay with IMM potential (setting [4]), above 100 µM.

In the case of `Cc1ncc(Cl)cc1NC(=O)c1cc(-c2ccc(F)c(O)c2)on1`, in the assay with mtPTP (Table 1, average ± SEM), the “Calcium Retention Capacity (CRC/CRC0) at 1.56 μM” value came out at 9.12 ± 0.88 and the “Calcium Retention Capacity (CRC/CRC0 at 12.5 μM)” value was 10.69 ± 1.00. In assay [1] (Table 1, average ± SEM), this compound registered an EC50 of 0.016 ± 0.0019 µM. The concentration for a half-maximal effect (EC50) in the assay with IMM potential (setting [4]) was above 100 µM.

`O=C(Nc1cc(Cl)cc(Cl)c1)c1cc(-c2cccc(O)c2)on1`: in the assay with mtPTP (Table 1, average ± SEM), the “Calcium Retention Capacity (CRC/CRC0) at 1.56 μM” value was found to be 5.72 ± 0.25. Moreover, the “Calcium Retention Capacity (CRC/CRC0 at 12.5 μM)” value with mtPTP (Table 1, average ± SEM) was 12.08 ± 1.92. For the same compound, the half-maximal effective concentration (EC50) in assay [1] (Table 1, average ± SEM) was 0.19 ± 0.017 µM; in the assay on IMM potential (setting [4]), above 100 µM.

Take `COc1ccc(NC(=O)c2cc(-c3cccc(O)c3)on2)cc1Cl`: the “Calcium Retention Capacity (CRC/CRC0 at 12.5 μM)” value with mtPTP (Table 1, average ± SEM) stood at 3.26 ± 0.32. The EC50 in assay [1] (Table 1, average ± SEM) was 0.189 ± 0.028 µM; with IMM potential (setting [4]), above 100 µM.

On to `O=C(Nc1cccc(Cl)c1)c1cc(-c2ccc(O)cc2)on1`, for which the “Calcium Retention Capacity (CRC/CRC0 at 12.5 μM)” value with mtPTP (Table 1, average ± SEM) was 3.50 ± 0.57. Besides, the half-maximal effective concentration (EC50) in assay [1] (Table 1, average ± SEM) was 2.21 ± 0.174 µM; in the assay with IMM potential (setting [4]) it was above 100 µM.

`Cc1ccc(Cl)cc1NC(=O)c1cc(-c2ccccc2O)on1`: in the assay with mtPTP (Table 1, average ± SEM), the “Calcium Retention Capacity (CRC/CRC0 at 12.5 μM)” value is 2.10 ± 0.26. The EC50 in assay [1] (Table 1, average ± SEM) was 6.06 ± 0.748 µM; in the assay on IMM potential (setting [4]), above 100 µM.

Turning to `COc1ccc(Cl)cc1C(=O)Nc1ccc(CN2CCN(C(=O)OC(C)(C)C)CC2)cc1`, in the assay with mtPTP (Table 1, average ± SEM), the “Calcium Retention Capacity (CRC/CRC0 at 12.5 μM)” value is reported as 1.33 ± 0.06. Besides, the EC50 in assay [1] (Table 1, average ± SEM) was 9.24 ± 0.86 µM; with IMM potential (setting [4]), above 100 µM.

With `O=C(Nc1ccc(CN2CCCCC2)cc1)c1cc(OCc2ccccc2)ccc1Cl` [Entry 3], the “Calcium Retention Capacity (CRC/CRC0 at 12.5 μM)” value with mtPTP (setting [2]) is on record as 2.26 ± 0.11. The half-maximal effective concentration (EC50) in assay [1] (setting [2]) is 3.6 ± 0.17 µM; in the assay with IMM potential (setting [3]), 75.7 ± 1.8 µM.

Turning to `O=C(Nc1cccc(Cl)c1Cl)c1cc(-c2cccc(O)c2)on1`, the “Calcium Retention Capacity (CRC/CRC0 at 12.5 μM)” value with mtPTP (Table 1, average ± SEM) is given as 4.00 ± 0.42. Besides, the EC50 is 12.5 ± 0.667 µM in assay [1] (Table 1, average ± SEM) and above 100 µM with IMM potential (setting [4]).

On to `COc1ccc(/C=C/C(=O)Nc2cccc(Cl)c2)cc1O` [drawing 143], for which the “Calcium Retention Capacity (CRC/CRC0 at 12.5 μM)” value with mtPTP (Table 1, average ± SEM) is 11.05 ± 1.35. Also, the half-maximal effective concentration (EC50) is 0.125 ± 0.0071 µM in assay [1] (Table 1, average ± SEM) and above 100 µM in the assay on IMM potential (setting [4]).
